From US9283222B2 (priority 2006, dated 2016)
Read-outs that look alike come from different tables or passages of the source.

Molecular target: Recombinant Human Poly(ADP-Ribose) Polymerase (PARP), PARP-1 (Homo sapiens (Human), UniProt P09874)
Conditions: read-out: PARP-1 (Ki)
[1] = Table 1, text calls the values EC50s

Sequence of Recombinant Human Poly(ADP-Ribose) Polymerase (PARP), PARP-1 (P09874 whole entry): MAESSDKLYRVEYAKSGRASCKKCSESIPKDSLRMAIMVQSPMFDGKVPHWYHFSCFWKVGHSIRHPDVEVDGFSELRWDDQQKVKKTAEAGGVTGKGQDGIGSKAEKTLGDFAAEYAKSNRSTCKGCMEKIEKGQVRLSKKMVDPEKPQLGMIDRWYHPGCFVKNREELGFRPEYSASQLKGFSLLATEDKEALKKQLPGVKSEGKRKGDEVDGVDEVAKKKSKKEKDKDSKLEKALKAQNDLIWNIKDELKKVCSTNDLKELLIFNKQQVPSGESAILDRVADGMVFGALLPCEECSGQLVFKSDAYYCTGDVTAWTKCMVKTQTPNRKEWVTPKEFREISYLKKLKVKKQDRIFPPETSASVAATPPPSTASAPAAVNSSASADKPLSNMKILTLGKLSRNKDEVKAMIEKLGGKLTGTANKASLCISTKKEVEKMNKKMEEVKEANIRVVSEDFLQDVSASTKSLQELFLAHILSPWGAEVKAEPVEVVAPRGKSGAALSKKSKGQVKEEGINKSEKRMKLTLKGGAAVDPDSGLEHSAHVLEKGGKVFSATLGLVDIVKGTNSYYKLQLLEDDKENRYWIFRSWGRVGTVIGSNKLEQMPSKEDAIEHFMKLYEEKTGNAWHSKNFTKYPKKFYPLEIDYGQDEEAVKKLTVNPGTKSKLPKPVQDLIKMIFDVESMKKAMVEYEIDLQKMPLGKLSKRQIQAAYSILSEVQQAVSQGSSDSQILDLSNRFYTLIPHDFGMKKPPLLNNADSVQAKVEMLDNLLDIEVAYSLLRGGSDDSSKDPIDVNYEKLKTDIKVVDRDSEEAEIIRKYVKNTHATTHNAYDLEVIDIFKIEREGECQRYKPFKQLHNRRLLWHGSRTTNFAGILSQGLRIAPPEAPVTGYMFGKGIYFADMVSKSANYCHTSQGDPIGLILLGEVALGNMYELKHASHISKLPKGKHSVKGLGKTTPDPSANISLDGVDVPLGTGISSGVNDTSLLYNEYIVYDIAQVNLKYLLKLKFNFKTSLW

Compound `O=C(Cc1cc(F)cc(F)c1)Nc1cccc(Cc2n[nH]c(=O)c3c2CCCC3)c1` [Example 156, 2-(3,5-difluorophenyl)-N-(3-((4-oxo-3,4,5,6,7,8-hexahydrophthalazin-1-yl)methyl)phenyl)acetamide] has a Ki [1] of 25 nM.
Compound `COc1ccc(C(=O)C2CCN(C(=O)c3cc(Cc4n[nH]c(=O)c5c4NCCC5)ccc3F)CC2)cc1` [Example 610, 8-(4-fluoro-3-{[4-(4-methoxybenzoyl)piperidin-1-yl]carbonyl}benzyl)-2,3,4,6-tetrahydropyrido[2,3-d]pyridazin-5(1H)-one] has a Ki [1] of 1.7 nM.
Work on `CCCNC(=O)Nc1cc(Cc2n[nH]c(=O)c3c2CCCC3)ccc1F` [Example 539, N-{2-fluoro-5-[(4-oxo-3,4,5,6,7,8-hexahydrophthalazin-1-yl)methyl]phenyl}-N′-propylurea] yielded a Ki [1] of 191 nM.
Compound `O=C(NC1CCCNC1)c1cccc(Cc2n[nH]c(=O)c3c2CCCC3)c1` (stereo not drawn) [Example 57, 3-((4-oxo-3,4,5,6,7,8-hexahydrophthalazin-1-yl)methyl)-N-piperidin-3-ylbenzamide] has a Ki [1] of 60 nM.
Compound `O=c1[nH]nc(Cc2cccc(NS(=O)(=O)c3cccnc3)c2)c2c1CCCC2` [Example 117, N-(3-((4-oxo-3,4,5,6,7,8-hexahydrophthalazin-1-yl)methyl)phenyl)pyridine-3-sulfonamide] has a Ki [1] of 477 nM.
Work on `O=C(c1cccc(Cc2n[nH]c(=O)c3c2CCCC3)c1)N1CCN(c2ccccc2)CC1` [Example 440, 4-(3-((4-phenylpiperazin-1-yl)carbonyl)benzyl)-5,6,7,8-tetrahydrophthalazin-1(2H)-one] yielded a Ki [1] of 3 nM.
`O=C(Nc1cccc(Cc2n[nH]c(=O)c3c2CCCC3)c1)C1(c2ccccc2)CC1` [Example 145, N-(3-((4-oxo-3,4,5,6,7,8-hexahydrophthalazin-1-yl)methyl)phenyl)-1-phenylcyclopropanecarboxamide] was tested, and the Ki [1] was 57 nM.
Work on `COc1ccc(NC(C)=O)cc1NC(=O)c1cccc(Cc2n[nH]c(=O)c3c2CCCC3)c1` [Example 357, N-(5-(acetylamino)-2-methoxyphenyl)-3-((4-oxo-3,4,5,6,7,8-hexahydrophthalazin-1-yl)methyl)benzamide] yielded a Ki [1] of 402 nM.
`CC(C)n1c(C(F)(F)F)nc2cc(C(=O)N3CCN(C(=O)c4cc(Cc5n[nH]c(=O)c6c5CCCC6)ccc4F)CC3)ccc21` [Example 725, 4-{4-fluoro-3-[(4-{[1-isopropyl-2-(trifluoromethyl)-1H-benzimidazol-5-yl]carbonyl}piperazin-1-yl)carbonyl]benzyl}-5,6,7,8-tetrahydrophthalazin-1(2H)-one] showed a Ki [1] of 5 nM.
With `O=C(Nc1cccc(Cc2n[nH]c(=O)c3c2CCCC3)c1)c1ccccc1C(=O)c1ccccc1` [Example 241, 2-benzoyl-N-(3-((4-oxo-3,4,5,6,7,8-hexahydrophthalazin-1-yl)methyl)phenyl)benzamide] the Ki [1] was 1450 nM.
`O=C(c1ccc2nc[nH]c2c1)N1CCCN(C(=O)c2cc(Cc3n[nH]c(=O)c4c3NCCC4)ccc2F)CC1` [Example 686, 8-(3-{[4-(1H-benzimidazol-6-ylcarbonyl)-1,4-diazepan-1-yl]carbonyl}-4-fluorobenzyl)-2,3,4,6-tetrahydropyrido[2,3-d]pyridazin-5(1H)-one] showed a Ki [1] of 1.9 nM.
Work on `COc1ccc(S(=O)(=O)N2CCN(C(=O)c3cc(Cc4n[nH]c(=O)c5c4CCCC5)ccc3F)CC2)cc1` [Example 620, 4-[4-fluoro-3-({4-[(4-methoxyphenyl)sulfonyl]piperazin-1-yl}carbonyl)benzyl]-5,6,7,8-tetrahydrophthalazin-1(2H)-one] yielded a Ki [1] of 2.2 nM.
`CC(Cc1n[nH]c(=O)c2c1CCCC2)c1cccc(-c2cccc(C(N)=O)c2)c1` (stereo not drawn) [Example 283, 3′-(1-methyl-2-(4-oxo-3,4,5,6,7,8-hexahydrophthalazin-1-yl)ethyl)-1,1′-biphenyl-3-carboxamide] showed a Ki [1] of 442 nM.
`O=C(c1ccccn1)N1CCN(C(=O)c2cc(Cc3n[nH]c(=O)c4c3CCCC4)ccc2F)CC1` [Example 730, 4-(4-fluoro-3-{[4-(pyridin-2-ylcarbonyl)piperazin-1-yl]carbonyl}benzyl)-5,6,7,8-tetrahydrophthalazin-1(2H)-one] showed a Ki [1] of 1.3 nM.
For `NC(=O)c1cccc(-c2cc(Cc3n[nH]c(=O)c4c3CCCC4)ccc2F)c1` [Example 252, 2′-fluoro-5′-((4-oxo-3,4,5,6,7,8-hexahydrophthalazin-1-yl)methyl)-1,1′-biphenyl-3-carboxamide], the Ki [1] was 19 nM.
Work on `O=C(c1cccc(Cc2n[nH]c(=O)c3c2CCCC3)c1)N1CCN(CCOCCO)CC1` [Example 443, 4-(3-((4-(2-(2-hydroxyethoxy)ethyl)piperazin-1-yl)carbonyl)benzyl)-5,6,7,8-tetrahydrophthalazin-1(2H)-one] yielded a Ki [1] of 16 nM.
With `O=C(NC1CCN(C(=O)c2ccncc2)CC1)c1cc(Cc2n[nH]c(=O)c3c2NCCC3)ccc1F` [Example 738, 2-fluoro-N-(1-isonicotinoylpiperidin-4-yl)-5-[(5-oxo-1,2,3,4,5,6-hexahydropyrido[2,3-d]pyridazin-8-yl)methyl]benzamide] the Ki [1] was 14 nM.
With `O=C(CCN1CCCCC1)Nc1cccc(Cc2n[nH]c(=O)c3c2CCCC3)c1` [drawing 24] the Ki (Table 3, H analogs versus para-F analogs) was 280 nM.
Compound `O=C1CC[C@@H]2COc3ccc(Cc4n[nH]c(=O)c5c4CCCC5)cc3N12` [Example 371] has a Ki [1] of 14 nM.
`O=C(NC1CCCCC1)c1cccc(Cc2n[nH]c(=O)c3c2CCCC3)n1` [Example 84, N-cyclohexyl-6-((4-oxo-3,4,5,6,7,8-hexahydrophthalazin-1-yl)methyl)pyridine-2-carboxamide] was tested, and the Ki [1] was 617 nM.
`O=c1[nH]nc(Cc2cccc(-c3cccc(CNC4CCC4)c3)c2)c2c1CCCC2` [Example 131, 4-((3′-((cyclobutylamino)methyl)-1,1′-biphenyl-3-yl)methyl)-5,6,7,8-tetrahydrophthalazin-1(2H)-one] showed a Ki [1] of 32 nM.
With `COc1cccc(CCNC(=O)c2cccc(Cc3n[nH]c(=O)c4c3CCCC4)c2)c1OC` [Example 402, N-(2-(2,3-dimethoxyphenyl)ethyl)-3-((4-oxo-3,4,5,6,7,8-hexahydrophthalazin-1-yl)methyl)benzamide] the Ki [1] was 86 nM.
`O=C(NCCc1ccc(Oc2ccccc2)cc1)c1cccc(Cc2n[nH]c(=O)c3c2CCCC3)c1` [Example 396, 3-((4-oxo-3,4,5,6,7,8-hexahydrophthalazin-1-yl)methyl)-N-(2-(4-phenoxyphenyl)ethyl)benzamide] gave a Ki [1] of 83 nM.
In the case of `O=C(NC1CCN(C(=O)c2ccco2)CC1)c1cc(Cc2n[nH]c(=O)c3c2NCCC3)ccc1F` [Example 726, 2-fluoro-N-[1-(2-furoyl)piperidin-4-yl]-5-[(5-oxo-1,2,3,4,5,6-hexahydropyrido[2,3-d]pyridazin-8-yl)methyl]benzamide], the Ki [1] is reported as 4 nM.
Compound `COc1cc(CCNC(=O)c2cccc(Cc3n[nH]c(=O)c4c3CCCC4)c2)cc(OC)c1` [Example 406, N-(2-(3,5-dimethoxyphenyl)ethyl)-3-((4-oxo-3,4,5,6,7,8-hexahydrophthalazin-1-yl)methyl)benzamide] has a Ki [1] of 42 nM.
`O=C(Nc1cccc(Cc2n[nH]c(=O)c3c2CCCC3)c1)c1cccnc1O` [Example 213, 2-hydroxy-N-(3-((4-oxo-3,4,5,6,7,8-hexahydrophthalazin-1-yl)methyl)phenyl)nicotinamide] was tested, and the Ki [1] was 82 nM.
Work on `CC(C)n1nnc2cc(C(=O)N3CCN(C(=O)c4cc(Cc5n[nH]c(=O)c6c5CCCC6)ccc4F)CC3)ccc21` [Example 728, 4-[4-fluoro-3-({4-[(1-isopropyl-1H-1,2,3-benzotriazol-5-yl)carbonyl]piperazin-1-yl}carbonyl)benzyl]-5,6,7,8-tetrahydrophthalazin-1(2H)-one] yielded a Ki [1] of 1.8 nM.
